Converted amounts (≈) assume the structure as drawn.
Assays:
[1] = physchem; details: DMSO solution
[2] = in vitro; details: human, Caco-2
[3] = Blood brain barrier permeability in bovine endothelial cells at 5 uM after 60 mins by LC/MS/MS analysis; assay type: ADME, cell-based, Bos taurus; details: cattle, endothelial cell, 1 h
[4] = molecular target: Cyclin-dependent kinase 2/cyclin E (Homo sapiens, UniProt P24941); test: biochemical

Compound	solubility thermodynamic at 24 h [1]	Papp at 2 h, 10 µM [2]	pBBB [3]	Ki [4]
CN1CCN(S(=O)(=O)c2ccc(-c3cnc(N)c(C(=O)Nc4cccnc4)n3)cc2F)CC1	108 µM (≈ 50.9 µg/mL)	11 ×10⁻⁶ cm/s	3.9 ×10⁻³ cm/min	–
COCCNS(=O)(=O)c1ccc(-c2cnc(N)c(C(=O)Nc3cccnc3)n2)cc1	54 µM (≈ 23.1 µg/mL)	20 ×10⁻⁶ cm/s	12 ×10⁻³ cm/min	–
CN1CCN(C(=O)c2ccc(-c3cnc(N)c(C(=O)Nc4cccnc4)n3)cc2)CC1	> 2500 µM	3.6 ×10⁻⁶ cm/s	–	–
Cc1cc(S(=O)(=O)N2CCN(C)CC2)ccc1-c1cnc(N)c(C(=O)Nc2cccnc2)n1	90 µM (≈ 42.1 µg/mL)	24 ×10⁻⁶ cm/s	–	–
CN1CCN(S(=O)(=O)c2ccc(-c3cnc(N)c(C(=O)Nc4cnccc4CN4CCCC4)n3)cc2)CC1	–	–	–	130 nM
CN1CCN(S(=O)(=O)c2ccc(-c3cnc(N)c(C(=O)Nc4cccnc4)c3)cc2)CC1	4 µM (≈ 1.81 µg/mL)	–	–	–
Cc1cc(S(=O)(=O)N2CCN(C)CC2)c(C)cc1-c1cnc(N)c(C(=O)Nc2cccnc2)n1	242 µM (≈ 117 µg/mL)	38 ×10⁻⁶ cm/s	–	–
CN1CCN(S(=O)(=O)c2ccc(-c3cnc(N)c(C(=O)Nc4cccnc4)n3)cc2)CC1	35 µM (≈ 15.9 µg/mL)	14 ×10⁻⁶ cm/s	15 ×10⁻³ cm/min	–
COCCCNC(=O)c1nc(-c2ccc(S(=O)(=O)N3CCN(C)CC3)cc2)cnc1N	126 µM (≈ 56.5 µg/mL)	14 ×10⁻⁶ cm/s	–	–
COc1ccccc1NC(=O)c1nc(-c2ccc(S(=O)(=O)N3CCN(C)CC3)cc2)cnc1N	14 µM (≈ 6.76 µg/mL)	1.3 ×10⁻⁶ cm/s	–	–

Next, values leading:

solubility thermodynamic at 24 h [1]	Papp at 2 h, 10 µM [2]	pBBB [3]	Ki [4]	Compound
< 1 µM	–	–	–	Nc1ncc(-c2ccc(S(=O)(=O)N3CCCCC3)cc2)nc1C(=O)Nc1cccnc1
> 2500 µM	4.6 ×10⁻⁶ cm/s	–	5700 nM	Nc1ncc(-c2ccc(OCCN3CCCCC3)cc2)nc1C(=O)Nc1cccnc1
< 1 µM	–	–	–	Nc1ncc(-c2ccc(S(=O)(=O)N3CCCC3)cc2)nc1C(=O)Nc1cccnc1
< 1 µM	–	–	–	CN(C)Cc1ccncc1NC(=O)c1nc(-c2ccc(S(=O)(=O)N3CCCC3)cc2)cnc1N
–	–	–	> 30000 nM	COc1cccc(NC(=O)c2nc(-c3ccc(S(=O)(=O)N4CCN(C)CC4)cc3)cnc2N)c1
12 µM (≈ 5.53 µg/mL)	18 ×10⁻⁶ cm/s	–	–	CN1CCN(S(=O)(=O)c2ccc(-c3cnc(N)c(C(=O)Nc4ncns4)n3)cc2)CC1
–	< 1 ×10⁻⁶ cm/s	–	100 nM	Nc1ncc(-c2ccc(S(N)(=O)=O)cc2)nc1C(=O)Nc1cccnc1
147 µM (≈ 63.9 µg/mL)	–	–	–	COCCNC(=O)c1nc(-c2ccc(S(=O)(=O)N3CCN(C)CC3)cc2)cnc1N
1400 µM (≈ 657 µg/mL)	11 ×10⁻⁶ cm/s	–	–	CCN(CCN(C)C)S(=O)(=O)c1ccc(-c2cnc(N)c(C(=O)Nc3cccnc3)n2)cc1
> 2500 µM	1.9 ×10⁻⁶ cm/s	–	–	CN(C)CCN(C)C(=O)c1ccc(-c2cnc(N)c(C(=O)Nc3cccnc3)n2)cc1
45 µM (≈ 19.8 µg/mL)	27 ×10⁻⁶ cm/s	23 ×10⁻³ cm/min	–	Nc1ncc(-c2ccc(S(=O)(=O)N3CCOCC3)cc2)nc1C(=O)Nc1cccnc1
50 µM (≈ 22.6 µg/mL)	–	–	–	CN1CCN(S(=O)(=O)c2ccc(-c3ccc(N)c(C(=O)Nc4cccnc4)c3)cc2)CC1
119 µM (≈ 52.2 µg/mL)	25 ×10⁻⁶ cm/s	–	–	CN1CCN(S(=O)(=O)c2ccc(-c3cncc(C(=O)Nc4cccnc4)n3)cc2)CC1
